The star is where a group is joined. X1 = CC(C)CCC[C@@H](C)[C@H]1CC[C@H]2[C@@H]3CC=C4C[C@@H](OC(=O)CCOCCOCCOCCOCCOCCOCCOCCOCCOCCOCCOCCOCCOCCOCCOCCOCCOCCOCCOCCOCCOCCOCCOCCOCCNC(=O)C*)CC[C@]4(C)[C@H]3CC[C@]12C; X2 = CC(C)CCC[C@@H](C)[C@H]1CC[C@H]2[C@@H]3CC=C4C[C@@H](OC(=O)CCOCCOCCOCCOCCNC(=O)C*)CC[C@]4(C)[C@H]3CC[C@]12C; X3 = CC(C)CCC[C@@H](C)[C@H]1CC[C@H]2[C@@H]3CC=C4C[C@@H](OC(=O)C*)CC[C@]4(C)[C@H]3CC[C@]12C
Assays:
[1] = format: physicochemical; conditions: pH 7.4
HPIV3 [2] = conditions: 24 h
Vero cells = conditions: for Cytotoxicity in monolayer culture CC50: 24 h
[3] = format: binding; conditions: read-out: Kd, dissociation constant for POPC monolayer
RBCs = format: binding, human; conditions: pH 7.4; read-out: Apparent Kd towards RBCs
HPIV3 [4] = format: cell-based
[5] = biological target: uncleaved HPIV3 F (K108G) (Human parainfluenza 3 virus, UniProt P06828, K108G); format: cell-based
uncleaved HPIV3 F (K108G), sequence (P06828 19-539 K108G): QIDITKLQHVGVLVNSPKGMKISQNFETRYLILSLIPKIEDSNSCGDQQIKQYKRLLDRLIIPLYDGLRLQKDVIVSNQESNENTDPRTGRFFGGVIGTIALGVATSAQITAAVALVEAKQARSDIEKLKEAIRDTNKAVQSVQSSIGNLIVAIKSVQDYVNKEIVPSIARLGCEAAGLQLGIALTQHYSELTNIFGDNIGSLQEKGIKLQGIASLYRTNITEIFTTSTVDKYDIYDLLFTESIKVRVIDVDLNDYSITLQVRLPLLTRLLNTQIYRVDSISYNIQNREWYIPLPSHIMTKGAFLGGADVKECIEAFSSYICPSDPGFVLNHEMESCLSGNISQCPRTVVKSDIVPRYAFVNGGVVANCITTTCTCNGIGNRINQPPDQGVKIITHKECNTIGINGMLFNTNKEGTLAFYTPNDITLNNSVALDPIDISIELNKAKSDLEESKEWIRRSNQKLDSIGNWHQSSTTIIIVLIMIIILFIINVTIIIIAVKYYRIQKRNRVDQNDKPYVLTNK

NiV G/F mediated fusion = format: cell-based
in vivo = conditions: female, Syrian golden, hamster, ip, 2 mg/kg
HPIV3 [6] = format: in vivo, cotton rats; conditions: n = 4
[7] = hamster, in vivo, ip, 2 mg/kg
NiV = system: NiV; design: species or system Syrian golden hamsters (Mesocricetus auratus); conditions: hamster, in vivo, ip, 2 mg/kg

Molecule	Blue-shift of ANS emission on titration with peptide [1]	IC50 (HPIV3 [2])	IC90 (HPIV3 [2])	Cytotoxicity in monolayer culture CC50 (Vero cells)	Kd [3]	Kd (RBCs)	Inhibition of HPIV3 infection in HAE at 1 μM (HPIV3 [4])	RBCs irreversibly bound (peptide bridging) [5]	Inhibition of HPIV3 infection in HAE at 10 μM (HPIV3 [4])	other results
Ac-VALDPIDISIVLNKAKSDLEESKEWIRRSNGKLDSIGSGSGC(X2)-NH2 [VG-PEG4-Chol]	63 nm	0.03 ± 0.04 nM	0.7 ± 0.007 nM	4,500 nM	67.9 ± 14.2 nM	440 nM	only partial inhibition	more than 50%	–	Decrease of HPIV3 viral titer in HAE at day 2 after infection (HPIV3 [4]): approximately two logs; Decrease of HPIV3 viral titer in HAE at day 5 (HPIV3 [4]): approximately one log
CC[C@H](C)[C@H](NC(=O)[C@H](C)NC(=O)[C@H](CC(N)=O)NC(=O)CNC(=O)[C@H](CC(C)C)NC(=O)[C@H](CC(N)=O)NC(=O)[C@@H](NC(=O)CNC(=O)[C@@H](NC(=O)[C@H](CC(=O)O)NC(=O)[C@H](CC(C)C)NC(=O)[C@H](CCCNC(=N)N)NC(=O)[C@H](CCC(=O)O)NC(=O)[C@H](CC(C)C)NC(=O)[C@H](CO)NC(=O)[C@@H](NC(=O)[C@@H]1CCCN1C(=O)[C@@H]1CCCN1C(C)=O)[C@@H](C)CC)C(C)C)[C@@H](C)O)C(=O)N[C@@H](C)C(=O)N[C@@H](CCCCN)C(=O)N[C@@H](CC(C)C)C(=O)N[C@@H](CCC(=O)O)C(=O)N[C@@H](CC(=O)O)C(=O)N[C@@H](C)C(=O)N[C@@H](CCCCN)C(=O)N[C@@H](CCC(=O)O)C(=O)N[C@@H](CC(C)C)C(=O)N[C@@H](CC(C)C)C(=O)N[C@@H](CCC(=O)O)C(=O)N[C@@H](CO)C(=O)N[C@@H](CO)C(=O)N[C@@H](CC(=O)O)C(=O)N[C@@H](CCC(N)=O)C(=O)N[C@H](C(=O)N[C@@H](CC(C)C)C(=O)N[C@@H](CCCNC(=N)N)C(=O)NCC(=O)N[C@@H](CO)C(=O)NCC(=O)N[C@@H](CO)C(=O)NCC(=O)N[C@@H](CSCC(=O)NCCOCCOCCOCCOCCOCCOCCOCCOCCOCCOCCOCCOCCOCCOCCOCCOCCOCCOCCOCCOCCOCCOCCOCCOCCC(=O)O[C@H]1CC[C@@]2(C)C(=CC[C@H]3[C@@H]4CC[C@H]([C@H](C)CCCC(C)C)[C@@]4(C)CC[C@@H]32)C1)C(N)=O)[C@@H](C)CC [HRCMV PEG 24 Chol, reference compound]	–	> 2000 nM	> 2000 nM	2,000 nM	–	–	–	–	–	–
Ac-C(X3)GSGSGVALDPIDISIVLNKAKSDLEESKEWIRRSNGKLDSI-NH2 [Chol-VG]	–	0.06 ± 0.035 nM	1.7 ± 0.42 nM	9,000 nM	–	–	–	–	–	IC50 against NiV fusion (NiV G/F mediated fusion): too little effect to determine an IC50; RBCs free (released) [5]: 80%; RBCs reversibly bound (HN-receptor engagement only) [5]: 20%
Ac-VALDPIDISIVLNKAKSDLEESKEWIRRSNGKLDSIGSGSGC(X1)-NH2 [VG-PEG24-Chol]	58 nm	0.007 ± 0.007 nM	0.1 ± 0.0003 nM	1,300 nM	77.6 ± 21.7 nM	330 nM	complete inhibition of infection	looks similar to VG-Chol	no virus was produced at any time after infection	Cmax (in vivo): 120 nM; Viral load in cotton rat lungs (HPIV3 [6]): significantly decreased the viral load; Protease degradation, temperature not given (trypsin): increased degradation significantly; Concentration at which toxicity on cells appears (Vero cells): 1000 nM; Peptide in brain (immuno-histofluorescence) [7]: present in brain parenchyma; Peptide in urine [7]: No peptide was detected in the urine; Survival of hamsters given lethal NiV (NiV): significantly improved the survival
Ac-C(X2)GSGSGVALDPIDISIVLNKAKSDLEESKEWIRRSNGKLDSI-NH2 [Chol-PEG4-VG]	–	–	0.1 ± 0.0001 nM	>10,000 nM	–	–	only partial inhibition	–	no virus was produced at any time after infection	–
Ac-VALDPIDISIVLNKAKSDLEESKEWIRRSNGKLDSIGSGSGC(X3)-NH2 [VG-Chol]	67 nm	0.015 nM	0.7 ± 0.26 nM	10,000 nM	62.3 ± 20.3 nM	540 nM	–	–	–	–
